Assays:
11β-HSD1 [1] = biological target: T1, 11β-HSD1 (Homo sapiens, UniProt P28845); experiment: Determination of 11β-HSD1 inhibition in HEK293 cells stably transfected with the 11β-HSD1 gene (cortisone to cortisol, LC/MS); type: cell-based; set-up: expressed in transfected cells; host or cells: HEK293 cells, stably transfected; details: 10 µM compound, 300 nM cortisone, 2 hours, read-out: HSD1 % inh in cells (10 µM)
Protocol: 11β-HSD1 activity was determined in cells that are incubated with substrate (cortisone) and product (cortisol) is determined by LC/MS. Cells are plated at 2 x 10^4 cells/well in a 96-well tissue culture microplate and incubated overnight at […] in 5% CO2 95% O2. Compounds to be tested are solubilized in 100% DMSO at 10 mM and serially diluted in water and 10% DMSO to final concentration 100 µM in 10% DMSO. 10 µl of each test dilution is dispensed into the well of a 96-well microplate (assay concentration of 10 µM). Low and high control wells contain 10 µl of 10% DMSO. A solution of DMEM is prepared containing 1% penicillin, 1% streptomycin and 300 nM cortisone. Medium is removed from cell assay plate and DMEM solution (100 µl) added to each well. Cells are incubated for 2 hours […] in 5% CO2 95% O2. Following incubation medium is removed from each well into 500 µl ethyl acetate mixed by vortex and incubated at room temperature for 5 minutes. A calibration curve of known concentrations of cortisol in assay medium is also set up and added to 500 µl ethyl acetate vortexed and incubated as above. The supernatant is removed to a 96 deep well plate and dried down under liquid nitrogen at 65°C. Each well is solubilised in 100 µl 70:30 H2O:ACN and removed to a 96 well v bottomed plate for LC/MS analysis.

11β-HSD1 [2] = biological target: T1, 11β-HSD1; experiment: Determination of the 11β-HSD1 inhibition in Human Liver Microsomes (3H-cortisone to 3H-cortisol conversion, scintillation proximity assay); type: biochemical; set-up: tissue Celsis In-vitro Technologies; host or cells: mixed sex human liver microsomes; details: mixed sex, 1 mM NADPH, 37°C, 30 minutes, read-out: HSD1 IC50 in HLM
Protocol: 11β-HSD1 activity was determined in mixed sex, Human Liver Microsomes (Celsis In-vitro Technologies) by measuring the conversion of ^3H-cortisone to ^3H-cortisol. Percentage inhibition was determined relative to a no inhibitor control. 5 µg of Human Liver microsomes was pre-incubated at 37°C for 10 minutes with inhibitor (assay concentrations of 1, 0.5, 0.1, 0.05, 0.01, 0.005, 0.001 and 0.0005 µM) and 1 mM NADPH in a final volume of 90 µL Krebs buffer. 10 µL of 200 nM ^3H-cortisone was then added followed by incubation for at 37°C for a further 30 minutes. The assay was terminated by rapid freezing on dry ice. ^3H-cortisone to ^3H-cortisol conversion was determined in 50 µL of the defrosted reaction by capturing liberated ^3H-cortisol on 100 µL 1:8000 dilution anti-cortisol (HyTest Ltd)-coated scintillation proximity assay beads (protein A-coated YSi, GE Healthcare). The percentages of inhibition at every tested concentration were analyzed using a non-linear regression curve fitting (variable slope) by using the software GraphPad Prism 5.0.

11β-HSD2 = biological target: T2, 11β-HSD2 (Homo sapiens, UniProt P80365); experiment: Determination of 11β-HSD2 inhibition in HEK293 cells stably transfected with the 11β-HSD2 gene (cortisol to cortisone, LC/MS); type: cell-based; details: assay concentrations of 10, 1, 0.1 µM, 2 hours
T2 construct: expressed in transfected cells; host or cells: HEK293 cells, stably transfected
T2 sequence (P80365 1-405): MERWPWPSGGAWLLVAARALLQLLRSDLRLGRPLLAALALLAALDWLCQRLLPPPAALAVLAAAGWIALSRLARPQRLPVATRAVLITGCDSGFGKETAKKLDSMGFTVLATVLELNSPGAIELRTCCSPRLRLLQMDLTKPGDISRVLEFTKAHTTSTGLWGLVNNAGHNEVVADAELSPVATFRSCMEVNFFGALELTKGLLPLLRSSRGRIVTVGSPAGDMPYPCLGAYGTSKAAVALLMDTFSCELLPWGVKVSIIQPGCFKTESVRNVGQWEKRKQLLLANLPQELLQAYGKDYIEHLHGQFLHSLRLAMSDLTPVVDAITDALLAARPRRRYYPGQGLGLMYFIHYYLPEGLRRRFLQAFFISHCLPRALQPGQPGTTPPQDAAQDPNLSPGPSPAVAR
Protocol: 11β-HSD2 activity was determined in cells that are incubated with substrate (cortisol) and product (cortisone) is determined by LC/MS. Cells are plated at 2 x 10^4 cells/well in a 96-well tissue culture microplate and incubated overnight at @37° C in 5% CO2 95% O2. Compounds to be tested are solubilized in 100% DMSO at 10 mM and serially diluted in water and 10% DMSO to final concentration in 10% DMSO. 10 µl of each test dilution is dispensed into the well of a 96-well microplate (assay concentrations of 10, 1, 0.1 µM). Low and high control wells contain 10 µl of 10% DMSO. A solution of DMEM is prepared containing 1% penicillin, 1% streptomycin and 300 nM […]. Medium is removed from cell assay plate and DMEM solution (100 µl) added to each well. Cells are incubated for 2 hours @37° C in 5% CO2 95% O2. Following incubation medium is removed from each well into 500 µl ethyl acetate mixed by vortex and incubated at room temperature for 5 minutes. A calibration curve of known concentrations of cortisone in assay medium is also set up and added to 500 µl ethyl acetate vortexed and incubated as above. The supernatant is removed to a 96 deep well plate and dried down under liquid nitrogen at 65°C. Each well is solubilised in 100 µl 70:30 H2O:AC and removed to a 96 well v bottomed plate for LC/MS analysis.

T1 sequence (P28845 whole entry): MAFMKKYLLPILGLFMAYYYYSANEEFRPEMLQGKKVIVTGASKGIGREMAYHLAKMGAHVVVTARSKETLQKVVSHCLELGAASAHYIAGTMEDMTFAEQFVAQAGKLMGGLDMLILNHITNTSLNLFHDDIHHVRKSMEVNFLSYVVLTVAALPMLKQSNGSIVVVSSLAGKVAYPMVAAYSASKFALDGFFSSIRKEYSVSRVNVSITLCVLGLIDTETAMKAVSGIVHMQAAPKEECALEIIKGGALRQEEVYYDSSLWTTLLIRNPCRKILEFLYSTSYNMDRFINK

Work on `O=C(C1CCCCC1)N1CC2[C@@H](C1)[C@H]1C=C[C@@H]2[C@@H]2C[C@H]12` (stereo partly drawn) [Example 1, cyclohexyl((4R,4aR,5aS,6S,6aS)-3,3a,4,4a,5,5a,6,6a-octahydro-4,6-etheno-cyclopropa[f]isoindol-2(1H)-yl)methanone] yielded an inhibition at 10 µM (11β-HSD1 [1]) of 100%, an IC50 (11β-HSD1 [2]) of less than 50 nM and an IC50 (11β-HSD2) of no less than 1000 nM.

Work on `O=C(C1CC=CCC1)N1CC2[C@@H](C1)[C@H]1C=C[C@@H]2[C@@H]2C[C@H]12` (stereo partly drawn) [Example 10, cyclohex-3-en-1-yl((4R,4aR,5aS,6S,6aS)-3,3a,4,4a,5,5a,6,6a-octahydro-4,6-ethenocyclopropa[f]isoindol-2(1H)-yl)methanone] yielded an inhibition at 10 µM (11β-HSD1 [1]) of 41%, an IC50 (11β-HSD1 [2]) of less than 50 nM and an IC50 (11β-HSD2) of 100 to 1000 nM.

Work on `Nc1c(Cl)cc(C(=O)N2CC3[C@@H](C2)[C@H]2C=C[C@@H]3[C@@H]3C[C@H]23)cc1Cl` (stereo partly drawn) [Example 9, (4-amino-3,5-dichlorophenyl)((4R,4aR,5aS,6S,6aS)-3,3a,4,4a,5,5a,6,6a-octahydro-4,6-ethenocyclopropa[f]isoindol-2(1H)-yl)methanone] yielded an inhibition at 10 µM (11β-HSD1 [1]) of 77%, an IC50 (11β-HSD1 [2]) of less than 50 nM and an IC50 (11β-HSD2) of 100 to 1000 nM.

`O=C(C1CCCCC1)N1CC2C3CCC(C4CC34)C2C1` [Example 2, cyclohexyl((4R,4aR,5aS,6S,6aS)-octahydro-4,6-ethanocyclopropa[f]iso-indol-2(1H)-yl)methanone] showed an inhibition at 10 µM (11β-HSD1 [1]) of 100%, an IC50 (11β-HSD1 [2]) of less than 50 nM and an IC50 (11β-HSD2) of less than 100 nM.

Work on `CC(C)(C)C(=O)N1CC2[C@@H](C1)[C@H]1C=C[C@@H]2[C@@H]2C[C@H]12` (stereo partly drawn) [Example 7, 2,2-dimethyl-1-((4R,4aR,5aS,6S,6aS)-3,3a,4,4a,5,5a,6,6a-octahydro-4,6-ethenocyclopropa[f]isoindol-2(1H)-yl)propan-1-one] yielded an inhibition at 10 µM (11β-HSD1 [1]) of 85%, an IC50 (11β-HSD1 [2]) of 500 to 1000 nM and an IC50 (11β-HSD2) of no less than 1000 nM.

For `N#Cc1ccc(N2CCN(c3ccc(C(=O)N4CC5[C@@H](C4)[C@H]4C=C[C@@H]5[C@@H]5C[C@H]45)cn3)CC2)cc1` (stereo partly drawn) [Example 15, 4-(4-(5-((4R,4aR,5aS,6S,6aS)-1,2,3,3a,4,4a,5,5a,6,6a-decahydro-4,6-ethenocyclopropa[f]isoindole-2-carbonyl)pyridin-2-yl)piperazin-1-yl)benzonitrile], the inhibition at 10 µM (11β-HSD1 [1]) was 100%, the IC50 (11β-HSD1 [2]) was 50 to 500 nM and the IC50 (11β-HSD2) was no less than 1000 nM.

Reference: patent EP3235813A1, “AZA-TETRA-CYCLO DERIVATIVES” (CIDQO 2012, S.L., priority 2016, dated 2017)
